Test results: ChEMBL document CHEMBL4725338, “Discovery of novel histone lysine methyltransferase G9a/GLP (EHMT2/1) inhibitors: Design, synthesis, and structure-activity relationships of 2,4-diamino-6-methylpyrimidines” (Bioorg Med Chem Lett, 2020)
Values after ≈ are worked out from the molar mass of the structure shown. Active and inactive are the calls of the source. The rule behind the calls is not given here.

Experiments:
[1] = biological target: T1, Histone-lysine N-methyltransferase EHMT2 (Homo sapiens, UniProt Q96KQ7); test: Inhibition G9a (unknown origin)
T1 sequence (Q96KQ7 whole entry): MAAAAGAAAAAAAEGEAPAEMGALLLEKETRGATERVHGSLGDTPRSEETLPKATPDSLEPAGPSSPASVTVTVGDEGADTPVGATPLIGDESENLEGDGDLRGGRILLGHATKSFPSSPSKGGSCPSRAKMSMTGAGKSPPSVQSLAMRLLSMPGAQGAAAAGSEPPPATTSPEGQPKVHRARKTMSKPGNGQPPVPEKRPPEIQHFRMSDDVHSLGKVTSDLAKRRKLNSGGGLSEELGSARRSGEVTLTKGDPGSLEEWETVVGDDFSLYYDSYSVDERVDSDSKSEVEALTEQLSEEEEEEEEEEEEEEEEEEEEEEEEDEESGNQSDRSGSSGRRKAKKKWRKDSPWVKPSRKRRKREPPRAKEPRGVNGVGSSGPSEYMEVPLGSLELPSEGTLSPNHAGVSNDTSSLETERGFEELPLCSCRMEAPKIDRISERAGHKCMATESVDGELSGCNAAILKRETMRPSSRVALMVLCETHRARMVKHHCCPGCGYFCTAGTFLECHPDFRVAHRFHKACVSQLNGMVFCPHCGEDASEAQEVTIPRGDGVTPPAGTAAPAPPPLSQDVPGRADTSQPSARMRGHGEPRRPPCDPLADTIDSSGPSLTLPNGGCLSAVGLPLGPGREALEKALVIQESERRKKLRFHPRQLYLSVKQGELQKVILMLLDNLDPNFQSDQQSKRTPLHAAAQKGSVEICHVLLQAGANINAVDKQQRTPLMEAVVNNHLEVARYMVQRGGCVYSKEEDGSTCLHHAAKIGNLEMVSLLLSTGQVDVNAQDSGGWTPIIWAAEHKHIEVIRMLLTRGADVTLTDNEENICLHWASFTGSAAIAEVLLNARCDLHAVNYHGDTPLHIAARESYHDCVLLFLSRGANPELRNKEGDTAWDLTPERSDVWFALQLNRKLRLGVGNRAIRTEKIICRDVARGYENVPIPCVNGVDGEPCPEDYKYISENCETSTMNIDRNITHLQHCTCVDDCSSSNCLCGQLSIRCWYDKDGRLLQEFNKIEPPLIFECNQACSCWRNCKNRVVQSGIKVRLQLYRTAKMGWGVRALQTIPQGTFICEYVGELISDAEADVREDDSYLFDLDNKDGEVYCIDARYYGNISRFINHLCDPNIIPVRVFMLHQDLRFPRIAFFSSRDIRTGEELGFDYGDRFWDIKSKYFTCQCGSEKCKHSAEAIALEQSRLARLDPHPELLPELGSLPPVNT

[2] = biological target: T2, Histone-lysine N-methyltransferase EHMT1 (Homo sapiens, UniProt Q9H9B1); test: Inhibition of GLP (unknown origin)
T2 sequence (Q9H9B1 whole entry): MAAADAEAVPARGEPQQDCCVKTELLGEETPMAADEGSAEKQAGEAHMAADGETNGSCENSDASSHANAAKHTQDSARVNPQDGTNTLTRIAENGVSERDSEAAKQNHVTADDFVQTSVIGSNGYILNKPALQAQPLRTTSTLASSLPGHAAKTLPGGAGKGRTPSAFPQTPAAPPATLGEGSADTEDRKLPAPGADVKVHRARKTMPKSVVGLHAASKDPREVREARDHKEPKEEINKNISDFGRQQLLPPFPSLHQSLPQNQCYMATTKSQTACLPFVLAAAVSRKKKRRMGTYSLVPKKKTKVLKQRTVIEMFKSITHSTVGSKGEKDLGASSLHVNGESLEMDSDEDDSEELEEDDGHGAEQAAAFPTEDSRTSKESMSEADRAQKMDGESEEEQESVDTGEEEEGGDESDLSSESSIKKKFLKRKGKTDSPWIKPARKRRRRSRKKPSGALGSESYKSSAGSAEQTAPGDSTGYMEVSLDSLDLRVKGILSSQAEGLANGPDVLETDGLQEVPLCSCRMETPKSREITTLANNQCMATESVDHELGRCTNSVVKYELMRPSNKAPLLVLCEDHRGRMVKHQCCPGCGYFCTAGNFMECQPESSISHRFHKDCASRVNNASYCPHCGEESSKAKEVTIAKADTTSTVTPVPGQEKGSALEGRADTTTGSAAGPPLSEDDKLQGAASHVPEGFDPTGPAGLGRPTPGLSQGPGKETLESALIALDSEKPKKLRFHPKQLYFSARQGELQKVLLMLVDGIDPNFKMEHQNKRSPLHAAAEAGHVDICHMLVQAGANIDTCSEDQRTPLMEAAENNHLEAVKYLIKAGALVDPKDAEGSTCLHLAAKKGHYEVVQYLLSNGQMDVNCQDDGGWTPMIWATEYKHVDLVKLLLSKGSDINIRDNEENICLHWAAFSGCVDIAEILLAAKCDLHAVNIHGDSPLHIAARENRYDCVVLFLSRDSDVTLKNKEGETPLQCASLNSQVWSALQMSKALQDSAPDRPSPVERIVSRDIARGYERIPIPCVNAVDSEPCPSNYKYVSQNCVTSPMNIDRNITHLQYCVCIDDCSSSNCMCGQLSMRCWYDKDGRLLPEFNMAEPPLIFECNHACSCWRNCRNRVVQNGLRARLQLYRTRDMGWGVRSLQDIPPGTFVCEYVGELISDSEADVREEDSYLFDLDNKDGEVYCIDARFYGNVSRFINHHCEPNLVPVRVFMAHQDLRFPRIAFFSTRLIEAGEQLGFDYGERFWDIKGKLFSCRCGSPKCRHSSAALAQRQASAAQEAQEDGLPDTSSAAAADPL

[3] = Metabolic stability in human liver microsomes assessed as compound remaining at 0.5 mg/mL incubated for 0.5 hrs; format: ADME, Microsome; settings: read-out: Stabilty
[4] = Aqueous solubility of the compound in pH 1.2 JP1 fluid; format: physicochemical
hERG (KCNH2) = hERG (KCNH2) (Homo sapiens, UniProt Q12809); test: Inhibition of human ERG at 10 uM relative to control
[5] = Initial plasma concentration in mouse at 1 mg/kg, iv; format: ADME, organism-based
[6] = Lipophilicity, log D of compound; format: physicochemical; settings: octanol/water
[7] = Aqueous solubility of the compound in pH 6.8 JP2 fluid; format: physicochemical
[8] = Cmax in mouse at 10 mg/kg, po; format: ADME, organism-based; set-up: route oral, dose 10 mg/kg; settings: in vivo
[9] = Oral bioavailability in mouse at 10 mg/kg; format: ADME, organism-based; settings: in vivo
[10] = AUC (0 to infinity) in mouse at 1 mg/kg, iv; format: ADME, organism-based; set-up: time infinity, route intravenous, dose 1 mg/kg; settings: in vivo
[11] = Tmax in mouse at 10 mg/kg, po; format: ADME, organism-based; settings: in vivo
[12] = Metabolic stability in monkey liver microsomes assessed as compound remaining at 0.5 mg/mL incubated for 0.5 hrs; format: ADME, Macaca mulatta, Microsome; settings: rhesus monkey, read-out: Stabilty
CYP3A4 = CYP3A4 (Homo sapiens, UniProt P08684); test: Mechanism based inhibition of CYP3A4 in human liver microsome assessed as remaining percentage at 100 uM in presence of substrate ACN preincubated 30 mins followed by substrate addition relative to control; format: ADME; settings: liver microsomes, probe ACN (so in the source), read-out: Activity
[13] = Apparent permeability in MDCK cells; format: ADME, cell-based, Canis lupus familiaris; settings: dog
[14] = Metabolic stability in mouse liver microsomes assessed as compound remaining at 0.5 mg/mL incubated for 0.5 hrs; format: ADME, Microsome; settings: read-out: Stabilty
[15] = AUC (0 to infinity) in mouse at 10 mg/kg, po; format: ADME, organism-based; set-up: time infinity, route oral, dose 10 mg/kg; settings: in vivo
[16] = Half-life in mouse at 1 mg/kg, iv; format: ADME, organism-based; settings: in vivo
[17] = Volume of distribution at steady state in mouse at 1 mg/kg, iv; format: ADME, organism-based; settings: in vivo, read-out: Vdss
[18] = Intrinsic clearance in mouse at 1 mg/kg, iv; format: ADME, organism-based; settings: in vivo
[19] = test system: CD34-positive (myeloid/lymphoid) cell; test: Inhibition of G9a methyltransferase activity in human CD34+ cells assessed as induction of fetal type gamma globin at 1 uM in presence of erythropoietin measured after 21 days by staining based method; format: functional; settings: time 21.0 day
[20] = test system: CD34-positive (myeloid/lymphoid) cell; test: Induction of fetal globin in human CD34+ cells assessed as switching of mRAN expression from adult beta-globin to fetal type gamma globin at 0.3 to 1 uM by qRT-PCR analysis; format: functional, cell-based

hERG (KCNH2), sequence (Q12809 whole entry): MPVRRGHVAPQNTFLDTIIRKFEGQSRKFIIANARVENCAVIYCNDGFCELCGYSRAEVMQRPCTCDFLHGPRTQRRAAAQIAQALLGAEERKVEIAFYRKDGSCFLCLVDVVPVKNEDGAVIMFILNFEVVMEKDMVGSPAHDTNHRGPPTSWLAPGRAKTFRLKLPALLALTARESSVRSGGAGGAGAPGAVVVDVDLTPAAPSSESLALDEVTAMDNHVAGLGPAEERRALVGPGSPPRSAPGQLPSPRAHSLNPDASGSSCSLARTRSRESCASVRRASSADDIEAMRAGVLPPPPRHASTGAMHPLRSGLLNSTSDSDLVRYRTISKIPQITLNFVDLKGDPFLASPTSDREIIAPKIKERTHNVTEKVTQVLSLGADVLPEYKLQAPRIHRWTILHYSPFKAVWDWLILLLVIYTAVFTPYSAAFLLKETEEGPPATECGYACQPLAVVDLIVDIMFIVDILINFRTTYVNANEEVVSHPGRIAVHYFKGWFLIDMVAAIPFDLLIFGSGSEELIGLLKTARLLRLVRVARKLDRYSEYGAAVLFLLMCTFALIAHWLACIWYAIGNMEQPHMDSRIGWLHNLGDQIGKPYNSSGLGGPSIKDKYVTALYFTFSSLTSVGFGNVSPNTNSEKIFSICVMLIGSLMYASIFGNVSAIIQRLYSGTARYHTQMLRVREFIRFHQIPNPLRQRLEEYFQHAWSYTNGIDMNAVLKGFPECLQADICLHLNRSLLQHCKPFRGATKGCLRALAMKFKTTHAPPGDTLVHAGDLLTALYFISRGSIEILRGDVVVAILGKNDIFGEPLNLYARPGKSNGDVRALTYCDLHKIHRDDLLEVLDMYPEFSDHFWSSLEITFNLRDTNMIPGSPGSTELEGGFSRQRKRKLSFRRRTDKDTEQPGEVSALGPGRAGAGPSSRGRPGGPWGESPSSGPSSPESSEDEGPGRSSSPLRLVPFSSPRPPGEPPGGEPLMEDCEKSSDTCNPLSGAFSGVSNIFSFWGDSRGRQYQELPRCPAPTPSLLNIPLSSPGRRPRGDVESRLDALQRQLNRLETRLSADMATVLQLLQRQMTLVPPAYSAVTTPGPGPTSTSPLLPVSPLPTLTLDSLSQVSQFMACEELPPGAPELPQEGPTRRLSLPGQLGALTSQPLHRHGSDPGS
CYP3A4, sequence (P08684 whole entry): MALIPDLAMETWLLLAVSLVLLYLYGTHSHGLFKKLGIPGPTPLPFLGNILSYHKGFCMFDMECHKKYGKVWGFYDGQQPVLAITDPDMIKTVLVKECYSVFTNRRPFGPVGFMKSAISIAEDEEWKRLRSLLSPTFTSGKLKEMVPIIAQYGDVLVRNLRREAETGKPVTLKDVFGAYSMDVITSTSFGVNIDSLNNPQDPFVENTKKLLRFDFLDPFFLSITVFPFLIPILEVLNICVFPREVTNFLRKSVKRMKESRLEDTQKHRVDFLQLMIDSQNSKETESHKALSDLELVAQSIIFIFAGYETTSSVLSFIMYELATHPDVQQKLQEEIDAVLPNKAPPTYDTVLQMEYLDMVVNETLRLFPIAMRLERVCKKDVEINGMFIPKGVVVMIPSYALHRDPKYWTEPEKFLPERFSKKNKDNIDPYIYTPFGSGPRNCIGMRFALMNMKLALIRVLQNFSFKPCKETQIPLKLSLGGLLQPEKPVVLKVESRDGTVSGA

| Structure (SMILES) | IC50 [1] | IC50 [2] | also measured |
| --- | --- | --- | --- |
| CNc1cc(C)nc(Nc2ccc(OC)c(N3CCN(C)CC3)c2)n1 | > 5000 nM |  |  |
| CCN1CC=C(c2cc(Nc3nc(C)cc(NC)n3)ccc2OC)CCC1 | 10.5 nM | 44.1 nM |  |
| CNc1cc(C)nc(Nc2ccc(OC)c(C3=CCN(C)CC3)c2)n1 | 92.9 nM | 277 nM |  |
| CNc1cc(C)nc(Nc2ccc(OC)c(C3=CCN(CCO)CCC3)c2)n1 | 213 nM | 1590 nM |  |
| CNc1cc(C)nc(Nc2ccc(OC(F)(F)F)c(C3=CCNCCC3)c2)n1 | 853 nM | 3800 nM |  |
| CNc1cc(C)nc(Nc2ccc(OC)c(C3=CCNCC3)c2)n1 | 225 nM | 1160 nM |  |
| CNc1cc(C)nc(Nc2ccc(OC)c(C3CCN(C)CC3)c2)n1 | 588 nM |  |  |
| CNc1cc(C)nc(Nc2ccc(OC)c(C3=CCN(C)CCC3)c2)n1 |  | 74.1 nM | remaining at 0.5 h [3]: 76%; solubility [4]: 710 µg/mL (≈ 2010 µM); inhibition at 10 µM (hERG (KCNH2)): 17%; C0 [5]: 220 nM; logD [6]: 1.3; solubility [7]: 360 µg/mL (≈ 1020 µM); Cmax [8]: 210 nM; bioavailability [9]: 26%; AUC(0-inf) [10]: 1.2 µM·h; Tmax [11]: 0.63 h; remaining at 0.5 h [12]: 2%; activity at 30 min, 100 µM (CYP3A4): 87.3%; Papp [13]: 8.4 ×10⁻⁶ cm/s; remaining at 0.5 h [14]: 23%; AUC(0-inf) [15]: 3.14 µM·h; half-life [16]: 5.6 h; Vd [17]: 14.9 L/kg; CL [18]: 38.7 mL/min/kg |
| CNc1cc(C)nc(Nc2ccc(OC)c(C3=CCCNCC3)c2)n1 | 83.3 nM | 479 nM |  |
| CNc1cc(C)nc(Nc2ccc(OC)c(C3=CCN(C4CCC4)CCC3)c2)n1 | 145 nM | 1070 nM |  |
| COc1cc2c(NC3CCN(C(C)C)CC3)nc(C3CCCCC3)nc2cc1OCCCN1CCCC1 |  |  | Activity [19]: Active |
| CNc1cc(C)nc(Nc2ccc(OC)c(C3=CCCN(C)C3)c2)n1 | 451 nM | 864 nM |  |
| CNc1cc(C)nc(Nc2ccc(OC)c(C3=CCN(C)C3)c2)n1 | 1490 nM | 2770 nM |  |
| CNc1cc(C)nc(Nc2ccc(Cl)c(C3=CCNCCC3)c2)n1 | 6.32 nM | 27.1 nM |  |
| COc1cc2c(cc1OCCCN1CCCC1)N=C(N)C21CCC1 |  |  | Activity [20]: Active |
| CNc1cc(C)nc(Nc2ccc(OC(F)F)c(C3=CCNCCC3)c2)n1 | 3.25 nM | 14.7 nM |  |
| CNc1cc(C)nc(Nc2ccc(OC)c(C3CCCNCC3)c2)n1 (racemic) | 28.2 nM | 342 nM |  |
| CNc1cc(C)nc(Nc2ccc(C)c(C3=CCNCCC3)c2)n1 | 14.2 nM | 109 nM |  |
| CNc1cc(C)nc(Nc2ccc(C#N)c(C3=CCNCCC3)c2)n1 | 15.2 nM | 43.2 nM |  |
